Source: patent US12023378B2, “Covalently linked antigen-antibody conjugates” (Hoffmann-La Roche Inc., priority 2012, dated 2024)

Legend:
[1] = Dig-peptide serum kinetic: Western blot detection of digoxigenylated polypeptide in serum; assay type: in vivo, mouse
Procedure: (§1) Serum samples were stored at −80° C.
The determination of the amount of digoxigenylated peptide in the serum at the given time points was difficult compared to the detection of Dig-Cy5 as no direct means to detect the polypeptide in serum samples was available. Therefore, a Western-Blot related assay to detect digoxigenylated peptide in serum was established. In a first step, the serum samples were separated on reducing SDS-PAGE. Because sample preparation included exposure of the serum to high concentrations of SDS and reducing agents, complexed Dig-polypeptide conjugates can become released from the (completely denatured/unfolded) anti-digoxigenin antibody, whereas covalently conjugates remained bound. To mediate the release of the polypeptide from the non-covalent antibody complex and separate the individual components by SDS-PAGE, 2 μl of each serum sample was diluted in 18 μl 20 mM histidine/140 mM NaCl pH 6.0, mixed with 6.7 μl of 4×LDS sample buffer and 3 μl of 10× sample reducing agent (NuPAGE, Invitrogen) for 5 min at 95° C. As a control, 2 μl of serum of an untreated mouse of the same strain was used. […] Digoxigenylated polypeptides were subsequently detected on the membrane with an anti-digoxigenin antibody. […] Chemiluminescence was detected with the Lumilmager F1 (Roche) with an exposure time of 20 min.

[2] = mouse, in vivo
Procedure: The objective of the described peptide modification technology is to improve the therapeutic applicability of peptides. Major bottlenecks for therapeutic application of peptides are currently limited stability in vivo and/or short serum half-life and fast clearance. The PK parameters of antibody conjugates of fluorophores were determined in vivo and compare with the PK of non-covalent antibody-fluorophore complexes. Therefore, (i) the anti-biotin antibody VH53C was covalently conjugated to the biotinylated fluorophore Biot-Cys-Cy5, (ii) a non-covalent complex of the anti-biotin antibody with biotinylated fluorophore Biot-Cy5 was generated, (iii) the covalently conjugated and the non-covalently complexed compounds were applied to animals and (iv) the serum concentrations of the compounds over time in these animals was measured by determination of the fluorescence of Cy5 (A650), and that of the corresponding antibody by an ELISA method that specifically detects the humanized antibody.
as §1

[3] = mouse, in vivo; remark: listed apart in the source
Text: The control group was not pre-injected with the anti-biotin antibody.

Compound | presence of digoxigenylated polypeptide in serum (Western blot signal) ([1]; 32.1 nmol, 0.08 h to 24 h after administration, FIG. 35) | half-life / persistence in the serum of mice ([1]; Western blot, up to 24 hrs.) | relative Cy5-mediated fluorescence in serum [2] | serum half-life and exposure levels [3]
CC[C@H](C)[C@H](NC(C)=O)C(=O)N[C@@H](CCCCNC(=O)CCOCCOCCOCCNC(=O)CO[C@H]1CC[C@@]2(C)[C@H](CC[C@@H]3[C@@H]2C[C@@H](O)[C@]2(C)[C@@H](C4=CC(=O)OC4)CC[C@]32O)C1)C(=O)N1CCN(c2ccc3ncn(CC(=O)N[C@@H](CCCNC(=N)N)C(=O)N[C@@H](Cc4c[nH]cn4)C(=O)N[C@@H](Cc4ccc(O)cc4)C(=O)N[C@@H](CC(C)C)C(=O)N[C@@H](CC(N)=O)C(=O)N[C@@H](Cc4c[nH]c5ccccc45)C(=O)N[C@H](C(=O)N[C@H](C(=O)N[C@@H](CCCNC(=N)N)C(=O)N[C@@H](CCC(N)=O)C(=O)N(C)[C@@H](CCCNC(=N)N)C(=O)N[C@@H](Cc4ccc(O)cc4)C(N)=O)[C@@H](C)O)C(C)C)c(=O)c3c2)CC1 [non-complexed polypeptide] | barely any signal associable to the small polypeptide was detectable even at the earliest time point | very short half-life |  | 
Biotin-O2Oc-Ser-O2Oc-DADOO-Cy5 [Biotin-Ser-Cy5] |  |  | not detectable | low serum half-life and low exposure levels
